Results on three compounds are retold here after US4772594A, “Prodrug compounds, process for the preparation thereof and sustained release preparation comprising the same” (Fujisawa Pharmaceutical Co., Ltd., priority 1986, dated 1988).

By T/C is commonly meant the result in the treated group divided by that in the control group, in per cent. The Inhibition is the relative decrease from the control value, in per cent. As a reminder, the half-life is the time in which the quantity being followed falls by half. Higher therefore signals slow loss.

Series [1] is described as follows: Conversion Test 1: conversion half life of prodrug to parent compound in mouse serum. In kind it is in vitro ADME. The settings on record: 37° C. On the procedure:
(§1) Chloroform solution containing egg yolk lecithin (84 μmole), egg yolk sphingomyelin (36 μmole) and Mitomycin C prodrug ( 6 μmole) obtained in the below-mentioned Example 1 or 2 was poured into a round-bottom flask and evaporated to dryness.
(§2) To this were added sodium cholate (258 mg) and pH 7.4 phosphate buffered saline (hereinafter referred to as PBS) (4.8 ml) and the mixture was agitated to give a clear purple solution.
(§3) Sodium cholate was removed from the solution by the Lipoprep dialyzer (detergent removal apparatus prepared by Diachema Co., Ltd.) to give a liposome suspension containing Mitomycin C prodrug.
(§4) Chloroform solution containing egg yolk lecithin (70 μmole), egg yolk sphingomyelin (30 μmole) and FR900482 substance prodrug (Example 6)(5 μmole) was poured into a round-bottom flask and a liposome suspension containing FR900482 substance prodrug was obtained in a similar manner to that of above-mentioned method. […]
(§5) After the liposome suspension and ethanol solution of each prodrug (0.5 ml) were added to mouse, rat or human serum (4.5 ml, 37° C.), samples were taken periodically and the concentration of each prodrug was determined by high-performance liquid chromotography.
(§6) Conversion half lives (t 1/2) of each prodrug to each parent compound in various kinds of serum were calculated by the concentration of each prodrug remaining at each time.

A short description of series [2]: Conversion Test 1: conversion half life of prodrug to parent compound in rat serum. In kind it is in vitro ADME. The settings on record: rat serum, 37° C. On the procedure: as §1, §2, §3
Chloroform solution containing egg yolk lecithin (70 μmole), egg yolk sphingomyelin (30 μmole) and FR900482 substance prodrug (Example 6)(5 μmole) was poured into a round-bottom flask and a liposome suspension containing FR900482 substance prodrug was obtained in a similar manner to that of above-mentioned method.
Above-mentioned two liposome suspensions containing Mitomycin C prodrug were each diluted with PBS at 2.5 times.
The liposome suspension containing FR900482 substance prodrug was diluted with PBS to obtain the drug concentration of 0.5 μmole/ml and was filtered through millex-GV (trademark: prepared by Millipore Co., Ltd.) filter (0.22μ).
as §5, §6

Series [3] in a line: Conversion Test 1: conversion half life of prodrug to parent compound in human serum. The settings on record: 37° C. It is filed as in vitro ADME. As for the experimental part: as §1, §2, §3, §4, §5, §6
The test system of series [4] is Mouse leukemia cell L 1210. The series can be described thus: Anti tumor test 1: survival of mice implanted with L 1210 leukemia. It is filed as in vivo. The settings on record: for T/C: mean survival time vs control. The source says:
The mixture of chloroform and methanol (8:2 V/V) containing egg yolk lecithin (245 μmole), egg yolk sphingomyelin (105 μmole) and Cytarabine prodrug (Example 8) (87.5 and 262.5 μmole respectively) was taken in a roundbottom flask. Liposome suspensions containing Cytarabine prodrug (Concentration: 10 and 20 μmole/ml respectively) were obtained in a similar manner to that of the above-mentioned method. Mouse leukemia cell L 1210 (10^5 cells) were implanted intraperitoneally into BDF female mice (7 weeks).
After 24 hours after inoculation, Cytarabine aqueous solution (dose: 1000 and 3000 μmole/kg respectively), above-mentioned liposome suspension containing Cytarabine prodrug (dose: 100 and 300 μmole/kg respectively)and aqueous solution of N^4 -behenoyl-1-β-arabinofuranosylcytosine (hereinafter referred to as BHAC) which is a known compound as Cytarabine prodrug and is shown by the following structure (dose: 100 and 300 μmole/kg respectively) were administered intravenously to the mouse at a volume of 0.2 ml or 0.3 ml (in case the administration at the dose of 300 μmole/kg of Cytarabine prodrug) per 20 g of mouse body weight. After the treatment, survival of the mice was recorded. [drawing 9]

Series [5] relates to human lung adenocarcinoma A 549. The series can be described thus: Anti tumor test 2: growth inhibition of A 549 under the subrenal capsule of mice. In kind it is in vivo. The note with it: Day 14; for Inhibition: tumor growth. The source says:
The mixture of chloroform and methanol (3:1 V/V) containing egg yolk lecithin (245 μmole), egg yolk sphingomyelin (105 μmole) and Cyarabine prodrug (Example 8) (87.5 and 157.5 μmole respectively) was taken in a round-bottom flask. Liposome suspensions containing Cytarabine prodrug (Concentration: 10 and 18 μmole/ml respectively) were obtained in a similar manner to that of the above-mentioned method.
A fragment of human lung adenocarcinoma A 549 was implanted under the subrenal capsule of BDF female mouse (8 weeks). Cytarabine aqueous solution (dose: 1000 μmole/kg) and above-mentioned liposome suspension containing Cytarabine prodrug (dose: 100 and 180 μmole/kg respectively)were administered intravenously to the mice at a volume of 0.2 ml per mouse body weight 20 g at Day 1, 5 and 9 after implantation. The tumor volume at Day 14 after implantation was measured and the growth inhibition percent was calculated. (In this test, to clarify the anti tumor effect of each preparation, 17-allyl-1,14-dihydroxy-12-[2-(4-hydroxy-3- methoxycyclohexyl)-1-methylvinyl]-23,25-dimethoxy-13,19,21,27-tetramethyl- 11,28-dioxa-4-azatricyclo[22.3.1.0^4,9 ]octacos-18-ene-2,3,10,16-tetraone as immunosuppressive substance(dose: 32 mg/kg) was administered subcutaneously at Day 1, 2, 5, 7, 9 and 12 after implanation.)

For series [6], the system named is Mouse leukemia cell L 1210. The series can be described thus: Anti tumor test 1: survival of mice implanted with L 1210 leukemia. In kind it is in vivo. The note with it: i.v. aqueous solution, 100 μmole/kg.
A short description of series [7]: in vitro. It is filed as in vitro ADME. The note with it: rat, serum. On the procedure: The mixture of chloroform and methanol (8:2 v/v) mixture containing egg yolk lecithin (70 μmole), egg yolk sphingomyelin (30 μmole) and Cytarabine prodrug (30 μmole) obtained in the below-mentioned Example 8 was poured into a round-bottom flask and evaporated to dryness. To this were added sodium cholate (53.8 mg) and PBS (5.0 ml) and the mixture was agitated to give a clear colorless solution.
Sodium cholate was removed from the solution by the Lipoprep dialyzer to give liposome suspension containing Cytarabine prodrug.
The liposome suspension was diluted with PBS to obtain the drug concentration of 5 μmole/ml and was filtered successively through polycarbonate membranes(prepared by Nuclepore Co., Ltd.) (0.2, 0.1 and 0.08μ respectively) and then filtered through a millex-GV filter (0.22 μ).
After the above-mentioned liposome suspension and ethanol solution of Cytarabine prodrug (0.08 ml) were added to rat serum (4.0 ml, 37° C.), samples were taken periodically and the concentration of Cytarabine prodrug was determined by high-performance liquid chromatography.
Conversion half lives (t 1/2) of the prodrug to the parent compound were calculated by the concentration of prodrug remaining at each time.

Setting [8] is: i.v. aqueous solution, 1000 μmole/kg.
The mark [9] stands for this setting: i.v. aqueous solution, 1000 μmole/kg at Day 1, 5, 9.
Setting [10] is: i.v. liposome suspension, 100 μmole/kg.
[11] abbreviates: i.v. liposome suspension, 300 μmole/kg.
The mark [12] stands for this setting: i.v. liposome preparation, 100 μmole/kg at Day 1, 5, 9.
Setting [13] is: i.v. liposome preparation, 180 μmole/kg at Day 1, 5, 9.

“11-[N-(cholest-5-en-3β-oxycarbonyl)glycyl]-4-formyl-6,9-dihydroxy-14- oxa-1,11-diazatetracyclo[7.4.1.0^2,7.0^10,12 ]tetradeca-2,4,6-triene-8-ylmethylcarbamate [Example 6]”: the “Half life (t 1/2)” value was determined as 2.7 h in series [1] (ethanol solution); 4.6 h in series [1] (liposome suspension); 4.0 h in series [2] (ethanol solution); 10.3 h in series [2] (liposome suspension); 3.3 h in series [3] (ethanol solution); 9.9 h in series [3] (liposome suspension).
In series [4] (setting [8]), `Nc1ccn([C@@H]2O[C@H](CO)[C@@H](O)[C@@H]2O)c(=O)n1` [Cytarabine, 1-β-D-arabinofuranosylcytosine] had a Mean survival time of 10.8 ± 0.3 days and a T/C of 120%. In series [5] (setting [9]), the “Tumor volume mean value ± standard error” value is listed as 17.7 ± 3.2 mm^3 and the Inhibition was 41.7%. In series [6], this compound returned a Mean survival time of 9.5 ± 0.2 days. For the same compound, the T/C in series [6] (mean survival time vs control) came to 106%.
On to `CC(C)CCC[C@@H](C)[C@H]1CC[C@H]2[C@@H]3CC=C4C[C@@H](OC(=O)NCC(=O)Nc5ccn([C@@H]6O[C@H](CO)[C@@H](O)[C@@H]6O)c(=O)n5)CC[C@]4(C)[C@H]3CC[C@]12C` [Example 8, N^4-[N-(cholest-5-en-3β-oxycarbonyl)glycyl]-1-β-D-arabinofuranosylcytosine], for which the “Half life (t 1/2)” value in series [7] turned out to be 37.3 h. The same compound had a half-life in series [7] (Half life (t 1/2)) of 22.6 h. In series [4] (setting [10]), this compound showed a Mean survival time of 16.3 ± 0.3 days and a T/C of 181%. In series [4] (setting [11]), this compound yielded a Mean survival time of 33.3 ± 13.4 days and a T/C of 370%. Also, in series [5] (setting [12]), the “Tumor volume mean value ± standard error” value was 13.0 ± 3.0 mm^3 and the Inhibition came to 54.1%. Besides, in series [5] (setting [13]), the “Tumor volume mean value ± standard error” value is 5.5 ± 1.6 mm^3 and the Inhibition came out at 80.4%.
